Laboratory results as given in US6333447A, “Transgenic model of heart failure” (The General Hospital Corporation, priority 1996, dated 2001).

Assays:
[1] = tested on: transgenic (Gsα overexpressing) and wild-type control mice; test: Left ventricular contractility (LV dP/dt) by Millar micromanometer with heart rate held constant by pacing
[2] = tested on: transgenic (Gsα overexpressing) and control mice; test: M-mode echocardiography and ECG during graded intravenous infusion of sympathomimetic amines in anesthetized mice
[3] = tested on: rats; settings: infusion for several weeks; cited from earlier work
[4] = tested on: mice; settings: chronic administration; cited from earlier work
[5] = TG mice, isoproterenol infusion 0.005 μg/kg/min
[6] = TG mice, isoproterenol infusion 0.01 μg/kg/min
[7] = TG mice, isoproterenol infusion 0.02 μg/kg/min
[8] = TG mice, isoproterenol infusion 0.02 μg/kg/min, listed as Isoproterenol
[9] = control mice, isoproterenol infusion 0.01 μg/kg/min
[10] = control mice, isoproterenol infusion 0.02 μg/kg/min
[11] = control mice, isoproterenol infusion 0.02 μg/kg/min, listed as Isoproterenol
[12] = control mice, isoproterenol infusion 0.04 μg/kg/min
[13] = TG mice, norepinephrine infusion 0.05 μg/kg/min
[14] = TG mice, norepinephrine infusion 0.1 μg/kg/min
[15] = TG mice, norepinephrine infusion 0.2 μg/kg/min
[16] = TG mice, norepinephrine infusion 0.2 μg/kg/min, listed as Norepinephrine
[17] = control mice, norepinephrine infusion 0.1 μg/kg/min
[18] = control mice, norepinephrine infusion 0.2 μg/kg/min
[19] = control mice, norepinephrine infusion 0.2 μg/kg/min, listed as Norepinephrine
[20] = control mice, norepinephrine infusion 0.4 μg/kg/min

With `CC(C)NCC(O)c1ccc(O)c(O)c1` (centres unmarked) [isoproterenol] the “Increase of left ventricular contractility (LV dP/dt) from baseline” value (shortened to “Increase”) ([1]; transgenic mice, heart rate held constant (9.0-0.6 Hz), isoproterenol 0.02 μg/kg/min) was 33±2%, the “Increase” value ([1]; wild-type control mice, heart rate held constant (8.0±0.0 Hz), isoproterenol 0.02 μg/kg/min, baseline 6923±281 mm Hg/sec) was 13±2% and the “Ejection Fraction” value [2, 5] was 80.6 ± 3.2%. The “Fractional Shortening” value [2, 5] was 42.5 ± 3.2%, the “Heart Rate” value [2, 5] was 369 ± 12 beats/min and the LVID end-diastole [2, 5] was 3.5 ± 0.3 mm. The LVID end-systole [2, 5] was 2.0 ± 0.1 mm, the “Ejection Fraction” value [2, 6] was 89.5 ± 2.6% and the “Fractional Shortening” value [2, 6] was 53.5 ± 3.5%. The “Heart Rate” value [2, 6] was 389 ± 10 beats/min, the LVID end-diastole [2, 6] was 3.4 ± 0.2 mm and the LVID end-systole [2, 6] was 1.6 ± 0.1 mm. The “Ejection Fraction” value [2, 7] was 96±1%, the “Fractional Shortening” value [2, 7] was 68±4% and the “Heart Rate” value [2, 7] was 433 beats/min. The LVID end-diastole [2, 7] was 3.1 mm, the LVID end-systole [2, 7] was 1.0 ± 0.1 mm and the “Ejection Fraction” value [2, 8] was 96.3 ± 1.3%. For the same molecule, the “Fractional Shortening” value [2, 8] was 67.9 ± 4.2%, the “Ejection Fraction” value [2, 9] was 76.7 ± 1.2% and the “Fractional Shortening” value [2, 9] was 38.5 ± 1.1%. For the same molecule, the “Heart Rate” value [2, 9] was 213 ± 16 beats/min, the LVID end-diastole [2, 9] was 4.0 ± 0.1 mm and the LVID end-systole [2, 9] was 2.4 ± 0.0 mm. The “Ejection Fraction” value [2, 10] was 86±3%, the “Fractional Shortening” value [2, 10] was 48±3% and the “Heart Rate” value [2, 10] was 236 ± 8 beats/min. The LVID end-diastole [2, 10] was 3.9 ± 0.1 mm, the LVID end-systole [2, 10] was 2.0 mm and the “Ejection Fraction” value [2, 11] was 85.8%. The “Fractional Shortening” value [2, 11] was 48.3%, the “Ejection Fraction” value [2, 12] was 94.1 ± 2.0% and the “Fractional Shortening” value [2, 12] was 62.8 ± 5.7%. For the same molecule, the “Heart Rate” value [2, 12] was 289 beats/min, the LVID end-diastole [2, 12] was 3.6 ± 0.1 mm and the LVID end-systole [2, 12] was 1.3 ± 0.2 mm. For the same molecule, the “Left ventricular end-diastolic dimensions” value ([2]; increasing doses of isoproterenol, both groups) was “decreased dose-dependently”, the Myocardial pathology [3] was “myocardial hypertrophy with cellular necrosis and replacement fibrosis” and the Hypertrophic response [4] was “enhanced hypertrophic responses”.
In the case of `NC[C@H](O)c1ccc(O)c(O)c1` [norepinephrine], the “Increase” value ([1]; transgenic mice, heart rate held constant (8.3±1.2 Hz), norepinephrine 0.1 μg/kg/min) is reported as 65±8%, the “Increase” value ([1]; wild-type control mice, heart rate held constant (6.0±0.0 Hz), norepinephrine 0.1 μg/kg/min, baseline 7292±461 mm Hg/sec) is reported as 28±4% and the “Ejection Fraction” value [2, 13] is reported as 79.8 ± 4.0%. For the same molecule, the “Fractional Shortening” value [2, 13] was 41.9 ± 3.9%, the “Heart Rate” value [2, 13] was 320 ± 13 beats/min and the LVID end-diastole [2, 13] was 3.6 ± 0.1 mm. For the same molecule, the LVID end-systole [2, 13] was 2.1 ± 0.1 mm, the “Ejection Fraction” value [2, 14] was 88.3 ± 3.8% and the “Fractional Shortening” value [2, 14] was 52.2 ± 4.8%. For the same molecule, the “Heart Rate” value [2, 14] was 322 ± 16 beats/min, the LVID end-diastole [2, 14] was 3.6 ± 0.2 mm and the LVID end-systole [2, 14] was 1.7 ± 0.2 mm. The “Ejection Fraction” value [2, 15] was 93±2%, the “Fractional Shortening” value [2, 15] was 59±4% and the “Heart Rate” value [2, 15] was 341 ± 18 beats/min. The LVID end-diastole [2, 15] was 3.6 mm, the LVID end-systole [2, 15] was 1.5 ± 0.2 mm and the “Ejection Fraction” value [2, 16] was 92.8 ± 2.1%. For the same molecule, the “Fractional Shortening” value [2, 16] was 59.4 ± 4.1%, the “Ejection Fraction” value [2, 17] was 78.3 ± 0.1% and the “Fractional Shortening” value [2, 17] was 39.9 ± 0.5%. For the same molecule, the “Heart Rate” value [2, 17] was 241 ± 27 beats/min, the LVID end-diastole [2, 17] was 4.0 ± 0.1 mm and the LVID end-systole [2, 17] was 2.4 ± 0.1 mm. For the same molecule, the “Ejection Fraction” value [2, 18] was 85±3%, the “Fractional Shortening” value [2, 18] was 47±3% and the “Heart Rate” value [2, 18] was 252 ± 33 beats/min. The LVID end-diastole [2, 18] was 4.1 ± 0.1 mm, the LVID end-systole [2, 18] was 2.2 mm and the “Ejection Fraction” value [2, 19] was 84.8%. The “Fractional Shortening” value [2, 19] was 47.0%, the “Ejection Fraction” value [2, 20] was 92.3 ± 2.0% and the “Fractional Shortening” value [2, 20] was 58.2 ± 3.9%. For the same molecule, the “Heart Rate” value [2, 20] was 272 ± 44 beats/min, the LVID end-diastole [2, 20] was 4.0 ± 0.1 mm and the LVID end-systole [2, 20] was 1.7 ± 0.2 mm. The Chronotropic effect ([2]; norepinephrine infusion, either group (control or transgenic)) was “no significant chronotropic effect” and the “Effect on left ventricular end-diastolic dimensions” value ([2]; norepinephrine infusion, transgenic or control group) was “no effect”.
